Measured values reported in the supplement of paper PMC11616607.

Assays:
Test in all cases: drug sensitivity score (DSS) from 5-point dose-response viability curve (DSS (area-under-curve based score)); higher = more sensitive (stronger growth inhibition or killing); extreme values may be limits of the assay
Conditions in all cases: exposure time: 72 h; concentration range: 5 concentrations over 10,000-fold range
[1] = test system: COV362
In short: (§1)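 Each cell line and drug received a drug sensitivity score from Breeze software, where higher means more sensitive. Zero stands for no response. Scores came from CellTiter-Glo viability readings of ovarian cancer and normal ovarian cells, 1,500 per well in 384-well plates, after 3 days at 37°C, 5% CO2 with drugs at five concentrations over a 10,000-fold range.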

[2] = test system: OVCAR5
In short: as §1

[3] = test system: OV90
In short: as §1

[4] = test system: CAOV3
In short: as §1

[5] = test system: JHOS2
In short: as §1

[6] = test system: OVCAR4
In short: as §1

[7] = test system: COV318
In short: as §1

[8] = test system: Kuramochi
In short: as §1

[9] = test system: HOSE1C
In short: as §1

[10] = test system: HOSE2C
In short: as §1

[11] = test system: Ovsaho
In short: as §1

[12] = test system: OVCAR8
In short: as §1

Row | Structure (SMILES) | drug sensitivity score [1] | drug sensitivity score [2] | drug sensitivity score [3] | drug sensitivity score [4] | drug sensitivity score [5] | drug sensitivity score [6] | drug sensitivity score [7] | drug sensitivity score [8] | drug sensitivity score [9] | drug sensitivity score [10] | drug sensitivity score [11] | drug sensitivity score [12]
1 | C[C@@H]1CN(C(=O)c2ccc(NC(=O)c3cc(O[C@H](C)c4c(Cl)ccc(F)c4Cl)c(N)nn3)cc2)C[C@H](C)N1 [Ensartinib] | 0 | 1.8 | 0.1 | 1.5 | 0 | 0 | 0 | 0 | 0.5 | 1.9 | 0 | 0
2 | Nc1ccccc1NC(=O)c1ccc(CNC(=O)OCc2cccnc2)cc1 [Entinostat] | 0 | 9.9 | 7.4 | 5.5 | 4.7 | 4.3 | 4.3 | 3.2 | 17.3 | 11.8 | 2.4 | 9.3
3 | c1cn2cc(-c3ccc4cn[nH]c4c3)nc(Nc3ccc(N4CCOCC4)cc3)c2n1 [Entospletinib] | 0 | 1.3 | 0 | 0 | 0.1 | 0 | 0 | 0 | 0 | 0 | 0 | 1.7
4 | CN1CCN(c2ccc(C(=O)Nc3n[nH]c4ccc(Cc5cc(F)cc(F)c5)cc34)c(NC3CCOCC3)c2)CC1 [Entrectinib] | 0.1 | 1 | 0 | 0.6 | 0 | 1 | 0 | 0 | 0.1 | 0 | 1.5 | 0
5 | CNC(=O)c1ccc(N2C(=S)N(c3ccc(C#N)c(C(F)(F)F)c3)C(=O)C2(C)C)cc1F [Enzalutamide] | 0 | 0.2 | 0 | 0 | 0 | 0.1 | 0.4 | 1.7 | 0 | 0 | 2.3 | 0
6 | Cn1cc(C2=C(c3cn(C4CCN(Cc5ccccn5)CC4)c4ccccc34)C(=O)NC2=O)c2ccccc21 [Enzastaurin] | 1.6 | 2.6 | 0 | 0 | 0.1 | 0 | 0 | 0 | 0.2 | 1.5 | 2 | 4.2
7 | NS(=O)(=O)NCCNc1nonc1/C(=N/O)Nc1ccc(F)c(Br)c1 [Epacadostat] | 0 | 0.3 | 0.4 | 0 | 0.9 | 0 | 1 | 0 | 0 | 0 | 0.1 | 0
8 | COc1cccc2c1C(=O)c1c(O)c3c(c(O)c1C2=O)C[C@@](O)(C(=O)CO)C[C@@H]3O[C@H]1C[C@H](N)[C@@H](O)[C@H](C)O1 [Epirubicin] | 1 | 5.1 | 5.7 | 9.9 | 5.7 | 2.9 | 0.7 | 4.6 | 9.6 | 10.3 | 7.1 | 8.9
9 | CCOc1ccccc1-n1c(C(C)N2CCN(C(=O)COc3ccc(Cl)cc3)CC2)nc2ccccc2c1=O (configuration not stated) [Erastin] | 1.4 | 0.9 | 1.4 | 0.9 | 0 | 9.1 | 1.9 | 0 | 0 | 0 | 0 | 7.9
10 | COc1cc(OC)cc(N(CCNC(C)C)c2ccc3ncc(-c4cnn(C)c4)nc3c2)c1 [Erdafitinib] | 0 | 0 | 0 | 0 | 0 | 2.6 | 3.5 | 0 | 3.2 | 11.2 | 0 | 0
11 | C=C1C[C@@H]2CC[C@@]34C[C@H]5O[C@H]6[C@@H](O3)[C@H]3O[C@H](CC[C@@H]3O[C@H]6[C@H]5O4)CC(=O)C[C@@H]3[C@@H](OC)[C@@H](C[C@H](O)CN)O[C@H]3C[C@H]3O[C@@H](CC[C@@H]1O2)C[C@@H](C)C3=C [Eribulin] | 7.9 | 20.5 | 20.3 | 25.8 | 9.1 | 6.3 | 4.2 | 12.9 | 25.8 | 24.3 | 12 | 24
12 | C#Cc1cccc(Nc2ncnc3cc(OCCOC)c(OCCOC)cc23)c1 [Erlotinib] | 0.1 | 4.4 | 1.5 | 7.5 | 3 | 2 | 0.8 | 1.6 | 0 | 0.3 | 4.8 | 2.5
13 | COc1cc([C@@H]2c3cc4c(cc3[C@@H](O[C@@H]3O[C@@H]5CO[C@@H](C)O[C@H]5[C@H](O)[C@H]3O)[C@H]3COC(=O)[C@H]23)OCO4)cc(OC)c1O [Etoposide] | 0.1 | 4.1 | 6.1 | 9.2 | 4.5 | 0 | 1.7 | 1.8 | 6.5 | 10.1 | 7 | 8.6
14 | CO[C@H]1C[C@@H]2CC[C@@H](C)[C@@](O)(O2)C(=O)C(=O)N2CCCC[C@H]2C(=O)O[C@H]([C@H](C)C[C@@H]2CC[C@@H](OCCO)[C@H](OC)C2)CC(=O)[C@H](C)/C=C(\C)[C@@H](O)[C@@H](OC)C(=O)[C@H](C)C[C@H](C)/C=C/C=C/C=C/1C [Everolimus] | 0.6 | 6.2 | 10 | 4.8 | 4.7 | 2.5 | 2.2 | 5.9 | 4.3 | 6.3 | 4 | 5.5
15 | C=C1C[C@@H]2[C@H](CC[C@]3(C)C(=O)CC[C@@H]23)[C@@]2(C)C=CC(=O)C=C12 [Exemestane] | 0 | 0 | 0.4 | 0 | 0 | 0 | 0 | 0 | 0 | 0 | 0 | 0
16 | CCn1c(=O)c(-c2ccc(Cl)cc2Cl)cc2cnc(Nc3ccc(N4CCNCC4)c(F)c3)nc21 [FRAX486] | 6.3 | 4.9 | 5.5 | 4.2 | 3.7 | 5.1 | 4.2 | 4.3 | 7.6 | 12.1 | 7 | 3.8
17 | Cc1cnc(Nc2ccc(OCCN3CCCC3)cc2)nc1Nc1cccc(S(=O)(=O)NC(C)(C)C)c1 [Fedratinib] | 6.1 | 7.2 | 8.8 | 6.5 | 5.3 | 5.2 | 3.7 | 7.7 | 7.1 | 8.5 | 7.4 | 7.1
18 | CON(C)C(=O)N1N=C(c2cc(F)ccc2F)S[C@@]1(CCCN)c1ccccc1 [Filanesib] | 1.4 | 17.6 | 10.8 | 21.3 | 7.4 | 6.8 | 8.7 | 9.5 | 21.8 | 16.2 | 8.8 | 17.7
19 | O=C(Nc1nc2cccc(-c3ccc(CN4CCS(=O)(=O)CC4)cc3)n2n1)C1CC1 [Filgotinib] | 0.2 | 1.8 | 3.2 | 2.3 | 1.1 | 2.6 | 3.4 | 5.1 | 0.1 | 0 | 2.5 | 2.5
20 | CC(C)(C)NC(=O)[C@H]1CC[C@H]2[C@@H]3CC[C@H]4NC(=O)C=C[C@]4(C)[C@H]3CC[C@]12C [Finasteride] | 0 | 0 | 0 | 0 | 0 | 0 | 0 | 0 | 0 | 0 | 0 | 0
21 | CCCCCCCCc1ccc(CCC(N)(CO)CO)cc1 [Fingolimod] | 6.2 | 6.4 | 6.2 | 6 | 5.5 | 7.5 | 7 | 7.5 | 7.4 | 5.4 | 7.6 | 6.8
22 | O=c1[nH]c(=O)n([C@H]2C[C@H](O)[C@@H](CO)O2)cc1F [Floxuridine] | 5.4 | 8.1 | 12.3 | 14.3 | 0.8 | 9.3 | 0 | 8.7 | 4.7 | 2.5 | 6.2 | 18.1
23 | Nc1nc(F)nc2c1ncn2[C@@H]1O[C@H](CO)[C@@H](O)[C@@H]1O [Fludarabine] | 0.5 | 0 | 1.5 | 0.2 | 0 | 0.2 | 0 | 0 | 25.2 | 22.6 | 0.1 | 4.4
24 | O=c1[nH]cc(F)c(=O)[nH]1 [Fluorouracil] | 0 | 2.7 | 2.3 | 2 | 0 | 0 | 0 | 0.6 | 2.5 | 0 | 2.6 | 2.3
25 | CC(C)C(=O)Nc1ccc([N+](=O)[O-])c(C(F)(F)F)c1 [Flutamide] | 0 | 0.1 | 0 | 0 | 0.3 | 0.5 | 0.2 | 0.7 | 0.2 | 0 | 0 | 0.3
26 | COc1cc2c(Oc3ccc(NC(=O)C4(C(=O)Nc5ccc(F)cc5)CC4)cc3F)ccnc2cc1OCCCN1CCOCC1 [Foretinib] | 1.2 | 5.3 | 3.8 | 6.9 | 0.5 | 3.2 | 1.3 | 2.7 | 1.9 | 4.5 | 1.9 | 1
